Data: patent US10548865B1, “Compositions of citrulline” (Hubei Grand Biotechnology Co. Ltd., priority 2019, dated 2020)

System: mice
Test: Loaded swimming test, exercise time to exhaustion
Format: in vivo
Details: intragastric, 1 hour prior to test
Protocol: Adult (8-10 weeks) male ICR mice were used in this study and purchased from Beijing Vital River Laboratory Animal Technology Co., Ltd. All the mice were provided with a normal diet and water ad libitum. All procedures were approved by institutional guidelines and the Animal Care and Use Committee (Huazhong University of Science and Technology, Wuhan, China) of the university's animal core facility. The mice were group-housed under a 12 h light-dark cycle (lights on at 8:00 a.m.), at consistent humidity (50±5%), and ambient temperature (22˜24° C.).
The animals were bred with three mice per cage in the laboratory, and were acclimatized for 1 week before the experiments. The mice were grouped randomly for each experiment. The mice in each group were given the corresponding dose amino acid and the control group was treated with the equal volume of normal saline (NS) through intragastric administration. Loaded swimming experiments were performed to assess the acute effect of the amino acids on endurance one hour after the treatment
The NS injection were purchased from Beijing Pharmaceutical Group Co., Ltd. The amino acid powders were dissolved in NS and then were intragastric administration to mice by lavage needle (Beijing Vital River Laboratory Animal Technology Co., Ltd.).
Acute effects on endurance performance were assessed by loaded swimming test one hour after the amino acid treatment. The swimming exercise was carried out in a tank (diameter 120 cm) filled with fresh water to 30-cm depth at 24±2° C. A tin wire (⅛ of body weight) was attached on the tail of the mouse. […] The length of time each mouse kept swimming before exhaustion (exercise time to exhaustion) was recorded. At the end of the session, the mice were removed from the water, dried with paper towels, and placed back in their home cages.
Sixty mice were randomly divided into four groups (n=15 per group). Each of the four group were treated with NS, citrulline (200 mg/kg body weight), GABA (150 mg/kg body weight), and citrulline/GABA mixture (200 mg/kg+150 mg/kg) respectively. The results were summarized below (Table 2 and FIG. 1).
The methods used here are the same as in Example 1, but GABA (150 mg/kg) was replaced by taurine (200 mg/kg). The results were summarized below (Table 3 and FIG. 2).
The methods used here are the same as in Example 1. Sixty mice were randomly divided into four groups (n=15 per group). Each of the four group were treated with NS, citrulline (75 mg/kg body weight), taurine (25 mg/kg body weight), and citrulline taurine mixture (75 mg/kg+25 mg/kg) respectively. The results were summarized below (Table 4 and FIG. 3).

[1] = Example 2, citrulline 200 mg/kg, taurine 200 mg/kg, mixture 200 mg/kg+200 mg/kg
[2] = Example 3, lower doses, citrulline 75 mg/kg, taurine 25 mg/kg, mixture 75 mg/kg+25 mg/kg
[3] = Example 1, citrulline 200 mg/kg, GABA 150 mg/kg, mixture 200 mg/kg+150 mg/kg, male ICR mice

SMILES	Average Time (s), exercise time to exhaustion [1] [s]	Increase of exercise time to exhaustion vs control [1] [%]	Increase of exercise time to exhaustion vs control (Example 2, citrulline 200 mg/kg, taurine 200 mg/kg, mixture 200 mg/kg+200 mg/kg, listed as taurine) [%]	Average Time (s), exercise time to exhaustion [2] [s]	Increase of exercise time to exhaustion vs control [2] [%]	Increase of exercise time to exhaustion vs control (Example 3, lower doses, citrulline 75 mg/kg, taurine 25 mg/kg, mixture 75 mg/kg+25 mg/kg, listed as taurine) [%]	Average Time (s), exercise time to exhaustion [3] [s]	Average Time (s), exercise time to exhaustion (Example 1, citrulline 200 mg/kg, GABA 150 mg/kg, mixture 200 mg/kg+150 mg/kg, male ICR mice, listed as citrulline)	Increase of exercise time to exhaustion vs control (Example 2, citrulline 200 mg/kg, taurine 200 mg/kg, mixture 200 mg/kg+200 mg/kg, listed as citrulline) [%]	Increase of exercise time to exhaustion vs control (Example 3, lower doses, citrulline 75 mg/kg, taurine 25 mg/kg, mixture 75 mg/kg+25 mg/kg, listed as citrulline) [%]
NCCS(=O)(=O)O [Taurine, taurine]	208	23.6	23.6	181	7.5	7.5	–	–	–	–
NC(=O)NCCC[C@H](N)C(=O)O [Citrulline, L-citrulline]	194.6	15.6	–	207.7	23.4	–	245.4	about 245.4 s	15.6	23.4
NCCCC(=O)O [GABA, gamma-aminobutyric acid, reference compound]	–	–	–	–	–	–	216.8	–	–	–
